The experiment addresses CDK12 (Homo sapiens, UniProt Q9NYV4). In words: Biochemical assay for CDK12 (LANCE TR-FRET, IC50 determination). To be noted: for IC50: CDK12, IC50 class, read-out: IC50 μM (in range); for CDK12 % Inhibition @ 10 μM / inhibition at 10 µM: compound at 10 μM; for inhibition at 10 µM: read-out: CDK12 % Inhibition @ 10 μM. How it is done:
Biochemical Assay for CDK12 (IC50 Determination):
The inhibitory activity of the test compounds was assessed by the LANCE TR-FRET assay, which detects the ATP-dependent phosphorylation of an ULight-4E-BP1 (Thr37/Thr46) substrate peptide (100 nM) by CDK12 (30 nM). Briefly, the enzyme reaction was run in reaction buffer (25 mM HEPES (pH 7.5), 10 mM MgCl2, […], 0.01% Triton x, 1 mM DTT). The assay was performed in 384-well plate format. The end concentration of the ATP substrate was […], and that of the ULight-4E-BP1 (Thr37/Thr46) substrate peptide was 100 nM, and of CDK12 was 30 nM. Pre-incubation of the compound and enzyme was performed for 60 min at room temperature. After 60 min incubation at room temperature, the reaction was terminated by the addition of 40 mM EDTA and 0.5 nM Eu-labeled anti-phospho-eIF4E-binding protein (Thr37/46) antibody in LANCE detection buffer. Time-resolved fluorescence (excitation, 320 nm; emission donor, 615 nm; emission acceptor, 665 nm) was monitored by using 2030 multilabel reader Victor5 (PerkinElmer). The Fluorescence emission of the samples were measured and the ratio was plotted against the compound concentration to generate the dose response curve. The IC50 values were derived by fitting a sigmoidal dose-response curve to a plot of assay readout over inhibitor concentration. All fits were computed with the program Prism 5.03 (Graph Pad Software, San Diego, CA). The % inhibition values at […] were calculated with respect to enzyme activity.
For orientation: In TR-FRET formats the signal depends on donor and acceptor labels being close together.

Sequence of CDK12 (Q9NYV4 whole entry): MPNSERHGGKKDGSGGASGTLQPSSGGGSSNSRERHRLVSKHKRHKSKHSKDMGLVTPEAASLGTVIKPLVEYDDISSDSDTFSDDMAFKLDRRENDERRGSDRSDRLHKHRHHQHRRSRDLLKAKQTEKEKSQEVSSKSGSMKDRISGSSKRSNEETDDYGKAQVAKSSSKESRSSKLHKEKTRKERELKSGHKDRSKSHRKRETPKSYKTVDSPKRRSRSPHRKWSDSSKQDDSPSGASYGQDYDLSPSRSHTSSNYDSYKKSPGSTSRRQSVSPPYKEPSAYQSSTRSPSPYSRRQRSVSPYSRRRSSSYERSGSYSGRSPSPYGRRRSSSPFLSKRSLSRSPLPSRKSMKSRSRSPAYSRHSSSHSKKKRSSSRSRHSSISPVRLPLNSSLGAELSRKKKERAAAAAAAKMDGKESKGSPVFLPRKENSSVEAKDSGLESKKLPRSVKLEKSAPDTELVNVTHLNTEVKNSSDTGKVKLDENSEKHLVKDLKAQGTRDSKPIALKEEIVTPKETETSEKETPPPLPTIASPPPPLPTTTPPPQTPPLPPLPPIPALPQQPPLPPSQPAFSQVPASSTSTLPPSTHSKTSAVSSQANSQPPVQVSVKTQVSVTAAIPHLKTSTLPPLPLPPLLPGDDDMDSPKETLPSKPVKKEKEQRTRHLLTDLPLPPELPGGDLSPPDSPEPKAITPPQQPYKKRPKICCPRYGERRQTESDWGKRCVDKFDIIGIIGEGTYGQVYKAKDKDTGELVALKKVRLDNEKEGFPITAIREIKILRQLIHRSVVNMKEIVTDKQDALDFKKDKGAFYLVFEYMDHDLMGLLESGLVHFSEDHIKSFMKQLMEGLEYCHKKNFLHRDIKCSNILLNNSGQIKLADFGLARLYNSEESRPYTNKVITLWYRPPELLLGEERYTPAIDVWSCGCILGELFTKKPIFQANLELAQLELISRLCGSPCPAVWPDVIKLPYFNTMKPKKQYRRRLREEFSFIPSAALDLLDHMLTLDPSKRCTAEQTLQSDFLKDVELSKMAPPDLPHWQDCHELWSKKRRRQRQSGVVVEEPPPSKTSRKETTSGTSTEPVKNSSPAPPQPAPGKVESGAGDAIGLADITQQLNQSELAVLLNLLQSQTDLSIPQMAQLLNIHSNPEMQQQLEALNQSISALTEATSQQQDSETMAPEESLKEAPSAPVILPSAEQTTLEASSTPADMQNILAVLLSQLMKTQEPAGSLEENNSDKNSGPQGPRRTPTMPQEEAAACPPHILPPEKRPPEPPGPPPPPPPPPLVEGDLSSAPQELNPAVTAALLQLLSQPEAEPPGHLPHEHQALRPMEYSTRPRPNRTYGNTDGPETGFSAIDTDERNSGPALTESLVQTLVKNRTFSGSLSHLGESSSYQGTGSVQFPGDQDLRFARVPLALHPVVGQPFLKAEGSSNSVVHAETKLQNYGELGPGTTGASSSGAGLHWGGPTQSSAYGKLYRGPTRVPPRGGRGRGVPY
Sequence of CDK12 (O75909 whole entry partner): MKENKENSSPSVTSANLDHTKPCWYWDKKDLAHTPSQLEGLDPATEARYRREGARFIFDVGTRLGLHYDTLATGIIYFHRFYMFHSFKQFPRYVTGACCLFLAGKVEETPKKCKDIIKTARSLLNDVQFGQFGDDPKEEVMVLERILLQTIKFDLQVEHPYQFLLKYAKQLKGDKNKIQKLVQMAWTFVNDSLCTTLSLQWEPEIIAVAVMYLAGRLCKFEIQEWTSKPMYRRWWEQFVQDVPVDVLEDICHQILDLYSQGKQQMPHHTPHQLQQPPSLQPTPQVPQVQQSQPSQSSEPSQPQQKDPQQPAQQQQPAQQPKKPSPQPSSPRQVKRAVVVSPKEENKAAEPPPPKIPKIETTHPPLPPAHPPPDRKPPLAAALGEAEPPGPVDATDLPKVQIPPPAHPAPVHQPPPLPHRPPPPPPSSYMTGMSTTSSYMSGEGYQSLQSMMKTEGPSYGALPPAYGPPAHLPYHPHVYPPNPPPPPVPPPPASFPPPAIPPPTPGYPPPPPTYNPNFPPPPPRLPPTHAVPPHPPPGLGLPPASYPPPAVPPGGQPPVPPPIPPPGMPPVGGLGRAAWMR

As usually defined, the IC50 is the concentration that inhibits the measured activity by half. Regarding `COc1cc(NC(=O)Cc2ccc(C3=CCN(C#N)C(C)C3)nc2)ncc1Cl` (single isomer, unassigned) [Compound 67, N-(5-chloro-4-methoxypyridin-2-yl)-2-(1′-cyano-2′-methyl-1′,2′,3′,6′-tetrahydro-[2,4′-bipyridin]-5-yl)acetamide], the concentration for half-maximal inhibition (IC50) is 0.01 to 0.1 µM. Besides, for the setting “10 µM”, the “CDK12 % Inhibition @ 10 μM” value is listed as 86%.

For the molecule `COc1cc(NC(=O)Cc2ccc(C3=CCN(C#N)C(C)C3)nc2)ncc1Cl` (single isomer, unassigned) [Compound 68, N-(5-chloro-4-methoxypyridin-2-yl)-2-(1′-cyano-2′-methyl-1′,2′,3′,6′-tetrahydro-[2,4′-bipyridin]-5-yl)acetamide], the IC50 is less than 0.01 µM. Moreover, the “CDK12 % Inhibition @ 10 μM” value (10 µM) came to 87%.

By inhibition is commonly meant the share of the control response that was lost under treatment. Regarding `COc1cc(NC(=O)Cc2ccc(C3=CCN(C#N)CC3C)nc2)ncc1Cl` (single isomer, unassigned) [Compound 71, N-(5-chloro-4-methoxypyridin-2-yl)-2-(1′-cyano-3′-methyl-1′,2′,3′,6′-tetrahydro-[2,4′-bipyridin]-5-yl)acetamide], the IC50 is less than 0.01 µM and the inhibition at 10 µM is 93%.

Turning to `COc1cc(NC(=O)Cc2ccc(C3=CCN(C#N)CC3C)nc2)ncc1Cl` (single isomer, unassigned) [Compound 72, N-(5-chloro-4-methoxypyridin-2-yl)-2-(1′-cyano-3′-methyl-1′,2′,3′,6′-tetrahydro-[2,4′-bipyridin]-5-yl)acetamide], the IC50 is less than 0.01 µM. Also, the “CDK12 % Inhibition @ 10 μM” value (10 µM) turned out to be 92%.

`COc1cc(NC(=O)Cc2ccc(C3CCCN(C#N)C3)nc2)ncc1Cl` (single isomer, unassigned) [Compound 79, N-(5-chloro-4-methoxypyridin-2-yl)-2-(6-(1-cyanopiperidin-3-yl)pyridin-3-yl)acetamide]: the IC50 is greater than 0.1 µM and the inhibition at 10 µM stood at 79%.

For `COc1cc(NC(=O)Cc2ccc(C3CCCN(C#N)C3)nc2)ncc1Cl` (single isomer, unassigned) [Compound 80, N-(5-chloro-4-methoxypyridin-2-yl)-2-(6-(1-cyanopiperidin-3-yl)pyridin-3-yl)acetamide], the IC50 was 0.01 to 0.1 µM. Moreover, where the note is “10 µM”, the “CDK12 % Inhibition @ 10 μM” value stood at 87%.

Regarding `CNC(=O)C(C)Oc1cc(NC(=O)Cc2ccc(C3CCN(C#N)CC3)nc2)ncc1Cl` (single isomer, unassigned) [Compound 83, 2-((5-chloro-2-(2-(6-(1-cyanopiperidin-4-yl)pyridin-3-yl)acetamido)pyridin-4-yl)oxy)-N-methylpropanamide], the IC50 is 0.01 to 0.1 µM and the inhibition at 10 µM was 84%.

Take `CNC(=O)C(C)Oc1cc(NC(=O)Cc2ccc(C3CCN(C#N)CC3)nc2)ncc1Cl` (single isomer, unassigned) [Compound 84, 2-((5-chloro-2-(2-(6-(1-cyanopiperidin-4-yl)pyridin-3-yl)acetamido)pyridin-4-yl)oxy)-N-methylpropanamide]: the IC50 is less than 0.01 µM and the “CDK12 % Inhibition @ 10 μM” value came to 84%.

Consider `CNC(=O)C(C)Oc1cc(NC(=O)Cc2ccc(C3CCCN(C#N)C3)nc2)ncc1Cl` (single isomer, unassigned) [Compound 86, 2-((5-chloro-2-(2-(6-(1-cyanopiperidin-3-yl)pyridin-3-yl)acetamido)pyridin-4-yl)oxy)-N-methylpropanamide], for which the IC50 was greater than 0.1 µM and the inhibition at 10 µM was determined as 84%.

As to `CNC(=O)C(C)Oc1cc(NC(=O)Cc2ccc(C3CCCN(C#N)C3)nc2)ncc1Cl` (single isomer, unassigned) [Compound 87, 2-((5-chloro-2-(2-(6-(1-cyanopiperidin-3-yl)pyridin-3-yl)acetamido)pyridin-4-yl)oxy)-N-methylpropanamide], the IC50 is greater than 0.1 µM. In addition, the “CDK12 % Inhibition @ 10 μM” value (10 µM) stood at 85%.

Take `CNC(=O)C(C)Oc1cc(NC(=O)Cc2ccc(C3CCCN(C#N)C3)nc2)ncc1Cl` (single isomer, unassigned) [Compound 88, 2-((5-chloro-2-(2-(6-(1-cyanopiperidin-3-yl)pyridin-3-yl)acetamido)pyridin-4-yl)oxy)-N-methylpropanamide]: the IC50 is greater than 0.1 µM. Under “10 µM”, the “CDK12 % Inhibition @ 10 μM” value was 79%.

Turning to `CNC(=O)C(C)Oc1cc(NC(=O)Cc2ccc(C3CCCN(C#N)C3)nc2)ncc1Cl` (single isomer, unassigned) [Compound 89, 2-((5-chloro-2-(2-(6-(1-cyanopiperidin-3-yl)pyridin-3-yl)acetamido)pyridin-4-yl)oxy)-N-methylpropanamide], the IC50 fell in the range of 0.01 to 0.1 µM. For the same molecule, the “CDK12 % Inhibition @ 10 μM” value (10 µM) came to 90%.

For `CNC(=O)C(C)Oc1cc(NC(=O)Cc2ccc(C3CCCN(C#N)C3)nc2)ncc1Cl` (single isomer, unassigned) [Compound 90, 2-((5-chloro-2-(2-(6-(1-cyanopiperidin-3-yl)pyridin-3-yl)acetamido)pyridin-4-yl)oxy)-N-methylpropanamide], the IC50 lay within 0.01 to 0.1 µM. Also, the “CDK12 % Inhibition @ 10 μM” value (10 µM) amounted to 93%.

On to `CNC(=O)C(C)Oc1cc(NC(=O)Cc2ccc(C3CCCN(C#N)C3)nc2)ncc1Cl` (single isomer, unassigned) [Compound 91, 2-((5-chloro-2-(2-(6-(1-cyanopiperidin-3-yl)pyridin-3-yl)acetamido)pyridin-4-yl)oxy)-N-methylpropanamide], for which the IC50 lay in the range of 0.01 to 0.1 µM. Also, the “CDK12 % Inhibition @ 10 μM” value (10 µM) came out at 95%.

Regarding `N#CN1CCCC(c2ccc(CC(=O)Nc3cc(O[C@@H]4CCOC4)c(Cl)cn3)cn2)C1` (single isomer, unassigned) [Compound 93], the IC50 fell in the range of 0.01 to 0.1 µM and the inhibition at 10 µM stood at 73%.

In the case of `N#CN1CCCC(c2ccc(CC(=O)Nc3cc(O[C@@H]4CCOC4)c(Cl)cn3)cn2)C1` (single isomer, unassigned) [Compound 94], the IC50 lay in the range of 0.01 to 0.1 µM. Also, the “CDK12 % Inhibition @ 10 μM” value (10 µM) was 77%.

With `N#CN1CCCC(c2ccc(CC(=O)Nc3cc(O[C@H]4CCOC4)c(Cl)cn3)cn2)C1` (single isomer, unassigned) [Compound 96], the IC50 was greater than 0.1 µM and the inhibition at 10 µM was 91%.

In the case of `N#CN1CCCC(c2ccc(CC(=O)Nc3cc(O[C@H]4CCOC4)c(Cl)cn3)cn2)C1` (single isomer, unassigned) [Compound 97], the half-maximal inhibitory concentration (IC50) was in the range of 0.01 to 0.1 µM. The “CDK12 % Inhibition @ 10 μM” value (10 µM) is reported as 96%.

As for `CN1CCC(Oc2cc(NC(=O)Cc3ccc(C4=CCN(C#N)CC4)nc3)ncc2Cl)C1` (stereo in doubt) [Compound 29, (R)-N-(5-chloro-4-((1-methylpyrrolidin-3-yl)oxy)pyridin-2-yl)-2-(1′-cyano-1′,2′,3′,6′-tetrahydro-[2,4′-bipyridin]-5-yl)acetamide], the IC50 is 0.01 to 0.1 µM and the inhibition at 10 µM is 86%.

In the case of `CN1CCC(Oc2cc(NC(=O)Cc3ccc(C4=CCN(C#N)CC4)nc3)ncc2Cl)C1` (stereo in doubt) [Compound 30, (S)-N-(5-chloro-4-((1-methylpyrrolidin-3-yl)oxy)pyridin-2-yl)-2-(1′-cyano-1′,2′,3′,6′-tetrahydro-[2,4′-bipyridin]-5-yl)acetamide], the IC50 lay within 0.01 to 0.1 µM and the inhibition at 10 µM was found to be 82%.

Values taken from US20260000692A1, “Substituted N-(Pyridin-2-yl)Acetamide Derivatives as CDK12/13 Inhibitors” (Aurigene Oncology Limited, priority 2022, published 2026).
